From ChEMBL document CHEMBL4483862, “Open-source discovery of chemical leads for next-generation chemoprotective antimalarials” (2018) come the findings set out here.

In the test the test system is Plasmodium berghei. As to the kind of experiment: Luciferase/luciferin-expressing antifolate-resistant parasites were used to infect a culture of HepG2 cells that were pre-incubated with compounds. Infected hepatocytes emit light due to the luciferase reaction. Assay results are presented as the percent inhibition of light emission compared to control. […]. The class given is functional. The following applies: sporozoite; for IC90: read-out: LUCIFERASE INFECTION ASSAY - IC90.

Setting [1] is: read-out: LUCIFERASE INFECTION ASSAY - IC50.

By IC50 is commonly meant the concentration that gives 50% inhibition. Usually IC90 stands for the concentration at which the effect reaches the 90% level. For the compound `Cc1ccc(NC(=O)N2CCCN(c3nc4ccc(Cl)cc4s3)CC2)cc1`, the IC90 was above 8.23 µM. For the same compound, under “HEPG2TOX_HILL_SLOPE 1.45, HEPG2TOX_R_SQUARED 0.845, PBLUC_HILL_SLOPE 2.38, PBLUC_R_SQUARED 0.538, read-out: LUCIFERASE INFECTION ASSAY - IC50”, the IC50 was 3.62 µM.
On to `Cc1cccc(C=C(C(=O)Nc2ccccc2Cl)C(=O)Nc2ccccc2Cl)c1`, for which the IC90 is above 10 µM. Besides, the IC50 under setting [1] is above 10 µM.
With `C/C(=N\OC(=O)Nc1ccccc1)c1sc2nc(C(F)(F)F)nn2c1C`, the IC90 is above 8.61 µM. Also, the IC50 under setting [1] is above 8.61 µM.
`O=C(NCc1ccccc1)C1=CN2CCN(Cc3cccc(Cl)c3)C(=O)N=C2O1`: the IC90 was above 10 µM. The IC50 (FFLUC_HILL_SLOPE 9.9, FFLUC_R_SQUARED 0.0641, read-out: LUCIFERASE INFECTION ASSAY - IC50) was above 10 µM.
For `COCCNc1nc(-c2ccc(Cl)cc2)nc2ccccc12`, the 90% effect concentration (IC90) is above 10.5 µM. Further, the IC50 under setting [1] is above 10.5 µM.
With `O=C(Nc1ccccc1Nc1cc(-c2ccccc2)nn1-c1ccccc1)c1ccc([N+](=O)[O-])cc1`, the IC90 is above 10 µM. The IC50 (PBLUC_HILL_SLOPE 1.78, PBLUC_R_SQUARED 0.355, read-out: LUCIFERASE INFECTION ASSAY - IC50) stood at 8.66 µM.
Take `Cc1ccc2nc(CN3CCCCC3c3nc4ccccc4s3)cn2c1` (stereo unspecified): the IC90 is above 10 µM. Also, the IC50 under setting [1] was above 10 µM.
For `Cc1coc(C)c1C(=O)/C=C/c1ccc2cccnc2c1`, the IC90 stood at 2.69 µM. Also, the IC50 under setting [1] was 2.51 µM.
For `Cc1ccc2nc(NC(=O)c3cccc(Cl)c3Cl)c(C(=O)NC3CCCC3)n2c1` the same measures were above 7.65 µM and above 7.65 µM.
As for `O=C1NCC(COC(=O)c2ccc3c4c(cccc24)CC3)O1` (stereo unspecified), the IC90 is 3.64 µM. Under “HEPG2TOX_HILL_SLOPE 2.53, HEPG2TOX_R_SQUARED 0.949, PBLUC_HILL_SLOPE 23.6, PBLUC_R_SQUARED 0.351, read-out: LUCIFERASE INFECTION ASSAY - IC50”, the concentration for half-maximal inhibition (IC50) came to 3.32 µM.
Regarding `Clc1ccc(-c2cnc3cnc(-c4ccccc4)cn23)cc1`, the IC90 was 4.82 µM. Further, the IC50 (PBLUC_HILL_SLOPE 10.1, PBLUC_R_SQUARED 0.74, read-out: LUCIFERASE INFECTION ASSAY - IC50) was found to be 3.88 µM.
As to `CCOC(=O)c1sc(NC(=O)c2cc(-c3ccc(F)cc3)nc3ccccc23)cc1C`, the 90% effect concentration (IC90) stood at 9.91 µM. Also, the IC50 (HEPG2TOX_HILL_SLOPE 7.73, HEPG2TOX_R_SQUARED 0.935, PBLUC_HILL_SLOPE 14.3, PBLUC_R_SQUARED 0.729, read-out: LUCIFERASE INFECTION ASSAY - IC50) is 8.51 µM.
As to `NS(=O)(=O)c1ccc(CCNC(=O)c2ccc3nccnc3c2)cc1`, the IC90 is above 10 µM. In addition, under setting [1], the IC50 was above 10 µM.
For the compound `O=C(Nc1ccc(SC(F)(F)F)cc1)N1CCN(c2nc(-c3ccccc3)ns2)CC1`, the IC90 is above 7.09 µM. In addition, the IC50 (HEPG2TOX_HILL_SLOPE 7.08, HEPG2TOX_R_SQUARED 0.48, PBLUC_HILL_SLOPE 1.8, PBLUC_R_SQUARED 0.469, read-out: LUCIFERASE INFECTION ASSAY - IC50) amounted to 3.31 µM.
Regarding `CCc1cccc(CC)c1N1C(=O)C=CC1=O`, the IC90 amounted to 5.85 µM. In addition, the IC50 (FFLUC_HILL_SLOPE 12.6, FFLUC_R_SQUARED 0.68, HEPG2TOX_HILL_SLOPE 16.7, HEPG2TOX_R_SQUARED 0.936, PBLUC_HILL_SLOPE 11.7, PBLUC_R_SQUARED 0.538, read-out: LUCIFERASE INFECTION ASSAY - IC50) worked out at 4.85 µM.
Regarding `CCCCn1c(=O)[nH]c(=O)c2c1nc(-c1ccc(C)c([N+](=O)[O-])c1)n2CC`, the IC90 turned out to be 3.73 µM. For the same compound, under “PBLUC_HILL_SLOPE 20.6, PBLUC_R_SQUARED 0.559, read-out: LUCIFERASE INFECTION ASSAY - IC50”, the IC50 worked out at 3.35 µM.
Regarding `Cc1ccccc1CN1CCN2C=C(C(=O)Nc3ccc(OCc4ccccc4)cc3)OC2=NC1=O`, the IC90 was above 10 µM. The IC50 under setting [1] is above 10 µM.
As for `Cc1ccc2c(c1)CCCN2C(=S)Nc1cccc(C(F)(F)F)c1`, the IC90 is above 9.42 µM. Further, under setting [1], the IC50 was above 9.42 µM.
In the case of `O=C(NCC1(c2ccccc2)CCC1)c1ccc(Cn2nnc3ccccc32)cc1`, the IC90 is above 10 µM. Also, the IC50 under setting [1] was above 10 µM.
With `Cc1cc(Br)c(O)c(/C=N/NC(=S)NC(C)(C)C)c1`, the IC90 was 4.85 µM. Also, the IC50 (HEPG2TOX_HILL_SLOPE 12.3, HEPG2TOX_R_SQUARED 0.401, PBLUC_HILL_SLOPE 113, PBLUC_R_SQUARED 0.332, read-out: LUCIFERASE INFECTION ASSAY - IC50) came to 4.76 µM.
Turning to `O=C(COc1ccc([N+](=O)[O-])c2cccnc12)Nc1ccc(C(F)(F)F)cc1`, the IC90 was above 10 µM. Further, the IC50 (FFLUC_HILL_SLOPE 10, FFLUC_R_SQUARED 0.0627, PBLUC_HILL_SLOPE 68.1, PBLUC_R_SQUARED 0.146, read-out: LUCIFERASE INFECTION ASSAY - IC50) worked out at 9.89 µM.
Consider `CCn1c2ccccc2c2cc(/C=C3\SC(=S)N(CCCN(C)C)C3=O)ccc21`, for which the IC90 is above 10 µM. Also, the IC50 under setting [1] is above 10 µM.
On to `CC(=O)c1c(C)[nH]c(C(=O)C(C)Sc2nc3ccccc3o2)c1C` (stereo unspecified), for which the IC90 was above 10 µM. Under “HEPG2TOX_HILL_SLOPE 2.15, HEPG2TOX_R_SQUARED 0.56, PBLUC_HILL_SLOPE 10.4, PBLUC_R_SQUARED 0.465, read-out: LUCIFERASE INFECTION ASSAY - IC50”, the IC50 came out at 8.44 µM.
As for `CC(=O)Oc1cccc(C(=O)N2CC3ON=C(c4c(F)cccc4Cl)C3C2)c1C` (stereo unspecified), the IC90 is above 10 µM. Further, the IC50 under setting [1] was above 10 µM.
As for `Cc1nc2ccccn2c1C(=O)NCc1cccc(OC(F)(F)F)c1`, the IC90 is above 9.45 µM. For the same compound, the 50% inhibitory concentration (IC50) (PBLUC_HILL_SLOPE 18.2, PBLUC_R_SQUARED 0.0314, read-out: LUCIFERASE INFECTION ASSAY - IC50) amounted to 8.72 µM.
As for `CC(C)(C(=O)NNC(=O)c1ccc2ccccc2n1)c1ccccc1`, the IC90 was found to be 7.01 µM. For the same compound, under “HEPG2TOX_HILL_SLOPE 11.1, HEPG2TOX_R_SQUARED 0.756, PBLUC_HILL_SLOPE 1.23E+03, PBLUC_R_SQUARED 0.165, read-out: LUCIFERASE INFECTION ASSAY - IC50”, the IC50 amounted to 7 µM.
Consider `CNc1nc2cnc(-c3ccc(F)c(Cl)c3)cc2n1Cc1ccc(OC)c(OC)c1`, for which the IC90 was 3.93 µM. In addition, where the note is “PBLUC_HILL_SLOPE 1.59, PBLUC_R_SQUARED 0.826, read-out: LUCIFERASE INFECTION ASSAY - IC50”, the IC50 was 0.992 µM.
As for `c1ccc(Nc2nc(-c3ccc4c(c3)CCC4)cs2)nc1`, the IC90 was above 10 µM. For the same compound, the IC50 (PBLUC_HILL_SLOPE 1.40, 0.464, PBLUC_R_SQUARED 0.303, 0.681, read-out: LUCIFERASE INFECTION ASSAY - IC50) is 4.84 µM.
Take `Cc1cc(C(=O)NNC(=O)c2ccc3ccccc3n2)c2cnn(Cc3cccs3)c2n1`: the IC90 is 9.16 µM. Further, where the note is “HEPG2TOX_HILL_SLOPE 8.79, HEPG2TOX_R_SQUARED 0.448, PBLUC_HILL_SLOPE 5.17, PBLUC_R_SQUARED 0.697, read-out: LUCIFERASE INFECTION ASSAY - IC50”, the IC50 amounted to 5.99 µM.
For `CCOC(=O)c1nn(CC2CC2)c2c1CN(CC(C)Cc1ccc3c(c1)OCO3)CC2` (stereo unspecified), the IC90 is above 7.76 µM. The IC50 under setting [1] is above 7.76 µM.
As to `COc1cc(C(=O)NCCCn2ccc3ccccc32)cc(OC)c1C`, the IC90 is above 10 µM. Further, the IC50 (HEPG2TOX_HILL_SLOPE 8.33, HEPG2TOX_R_SQUARED 0.471, PBLUC_HILL_SLOPE 17.9, PBLUC_R_SQUARED 0.367, read-out: LUCIFERASE INFECTION ASSAY - IC50) stood at 9.65 µM.
With `CS(=O)(=O)c1ccc(-c2ccc3ncc(-c4cccc(CO)c4)n3n2)cc1`, the IC90 was found to be 3.89 µM. For the same compound, the IC50 (HEPG2TOX_HILL_SLOPE 2.77, HEPG2TOX_R_SQUARED 0.883, PBLUC_HILL_SLOPE 15.3, PBLUC_R_SQUARED 0.0795, read-out: LUCIFERASE INFECTION ASSAY - IC50) worked out at 3.37 µM.
On to `Clc1ccc(CNc2ncnc3sccc23)cc1`, for which the IC90 was above 10 µM. Also, the IC50 under setting [1] stood at 3.31 µM.
`Cc1cc2ccccn2c1C(=O)c1ccc(-c2ccccc2)cc1`: the IC90 was 3.77 µM. Under “HEPG2TOX_HILL_SLOPE 2.45, HEPG2TOX_R_SQUARED 0.945, PBLUC_HILL_SLOPE 19.6, PBLUC_R_SQUARED 0.427, read-out: LUCIFERASE INFECTION ASSAY - IC50”, the IC50 was 3.37 µM.
As to `Cc1nc(N(C)Cc2c(C)nn(C3CCS(=O)(=O)C3)c2C)c2c(-c3ccccc3)csc2n1` (stereo unspecified), the 90% effect concentration (IC90) is above 10 µM. Moreover, the IC50 (HEPG2TOX_HILL_SLOPE 23.3, HEPG2TOX_R_SQUARED 0.0131, PBLUC_HILL_SLOPE 4.31, PBLUC_R_SQUARED 0.318, read-out: LUCIFERASE INFECTION ASSAY - IC50) was 6.76 µM.
Consider `O=C1COc2ccc(-c3cs/c(=N\CCc4ccccc4)n3/N=C/c3ccc4ncccc4c3)cc2N1`, for which the IC90 was above 10 µM. The IC50 (FFLUC_HILL_SLOPE 3.55, FFLUC_R_SQUARED 0.719, HEPG2TOX_HILL_SLOPE 3.57, HEPG2TOX_R_SQUARED 0.945, read-out: LUCIFERASE INFECTION ASSAY - IC50) is above 10 µM.
With `CCc1nc2ccc(C(=O)N3CCCCC3)cn2c1N(C)CCC(C)C`, the IC90 is above 9.26 µM. Moreover, the IC50 under setting [1] is above 9.26 µM.
As to `CC(C)N(C(=O)CSC1=NC(c2ccccc2)C2=C(N1)/C(=C/c1ccccc1)CCC2)c1ccccc1` (stereo unspecified), the IC90 was determined as 9.39 µM. The half-inhibitory concentration (IC50) (FFLUC_HILL_SLOPE 9.66, FFLUC_R_SQUARED 0.711, HEPG2TOX_HILL_SLOPE 8.12, HEPG2TOX_R_SQUARED 0.779, PBLUC_HILL_SLOPE 2.67, PBLUC_R_SQUARED 0.724, read-out: LUCIFERASE INFECTION ASSAY - IC50) is 4.12 µM.
